Series [1] has as its system E. coli GR2. Description: modified Hollow T-Tube in vitro model simulating antibacterial treatment with oral cefaclor in humans over 24 hours. It is filed as cell-based, Escherichia coli. The note with it: for Observed Δt > MIC / Δt > MIC: percentage of the dosage interval. On the procedure: The bacteria stem from one strain of Escherichia coli, species that is considered to be non-constantly sensitive. The strain was obtained from M.-H. Nicolas (Hôpital Ambroise Paré, Paris, France) under the code E. coli GR2 with MIC of […]. The usual breakpoints with cefaclor for E. coli are ≦2 mg/l for sensitive strains and >8 mg/l for resistant strains, according to CA-SFM (Comité de l'Antibiogramme de la Société Française de Microbiologie).
The culture media is a Müller-Hinton Broth (MHB) obtained from Pasteur diagnostic (reference 69444). The starting inoculum of E. coli in the culture media is 10^7±5% CFU/ml. The E. coli concentration is measured by nephelometry (Densimat, ref. 99535 ver. A, Biomérieux, France) and standard dilution method.
(§1) The counting of E. coli present in the culture medium was measured in vitro in a model simulating the antibacterial treatment with oral beta-lactamine in humans over 24 hours.
(§2) The model simulating the antibacterial treatment used in the examples is a modified “Hollow T-Tube”-model, originally described by Cappellety et al. (Pharmacodynamics of ceftazidime administered as continuous infusion or intermittent bolus alone or in combination with single daily-dose amikacine against Pseudomonas aeruginosa in an in vitro infection model, A.A.C., 1995, 33: 1797-1801) and modified by the inventors (Louchahi et al. A procedure to mimic human impaired kinetic profiles of antibiotics with the hollow glass T-tube in vitro pharmacodynamic model, Abstract no 2116, p. 234, 39th ICAAC, Sep. 26-29, 1999, San Francisco).
In all experiments the period during which, after the addition of cefaclor, the concentration of cefaclor was above the MIC was measured (Δt>MIC). The result is expressed as percentage of the dosage interval.
The variation of the bacterial count was regularly registered during 24 hours. The result is expressed as ΔUFC/ml. For every experiment, the negative sign is highlighting the decreasing count with time since it corresponds to the difference between the initial inoculum at T0 and final bacterial count at T 24 h.

Series [2] is described as follows: cefaclor concentration profile (t1/2, cmax) observed in the modified Hollow T-Tube in vitro model. Here is the method:
as §1, §2
Three different elimination half-lives were simulated: • 1. t1/2=45-50 min, which corresponds to a conventional immediate release form of cefaclor, • 2. t1/2=55-60 min, which corresponds to a conventional sustained release form of cefaclor, • 3. t1/2=90-100 min, which corresponds to an extended release form of cefaclor according to the present invention.

The mark [3] stands for this setting: E1.1: expected t1/2 45-50 min, 500 mg, interval 8 h.
Setting [4] is: E1.2: expected t1/2 55-60 min, 750 mg, interval 12 h.
Setting [5] is: E1.3: expected t1/2 90-100 min, 500 mg, interval 8 h.
The mark [6] stands for this setting: E1.4: expected t1/2 90-100 min, 750 mg, interval 12 h.
The mark [7] stands for this setting: E1.5: expected t1/2 90-100 min, 750 mg, interval 8 h.
Where [8] appears, read: E2.1: simulated poor absorber, 500 mg, interval 8 h.
[9] abbreviates: E2.2: simulated standard absorber, 500 mg, interval 8 h.
Where [10] appears, read: E2.3: simulated good absorber, 500 mg, interval 8 h.

Structures are written as SMILES.

For `N[C@@H](C(=O)N[C@@H]1C(=O)N2C(C(=O)O)=C(Cl)CS[C@H]12)c1ccccc1` [cefaclor, cefaclor monohydrate], the “Δ UFC/ml by 24 h” value is listed as −1.5 log in series [1] (setting [3]); −1.5 log in series [1] (setting [4]); −4 log in series [1] (setting [5]); −1.5 log in series [1] (setting [6]); above −5 log in series [1] (setting [7]); −3 log in series [1] (setting [8]). Also, the “Δ UFC/ml by 24 h” value is listed as −4 log in series [1] (setting [9]) and −5 log in series [1] (setting [10]). The “Observed Δt > MIC” value is 50% in series [1] (setting [3]); 30-35% in series [1] (setting [4]); 75% in series [1] (setting [5]); 58% in series [1] (setting [6]); 87% in series [1] (setting [7]). The “Δt > MIC” value in series [1] (setting [8]) is 50%; in series [1] (setting [9]), 75%; in series [1] (setting [10]), 87%. Also, the “Observed t1/2” value is recorded as 46 min in series [2] (E1.1: expected t1/2 45-50 min, 500 mg cefaclor, dosage interval 8 h); 58 min in series [2] (E1.2: expected t1/2 55-60 min, 750 mg cefaclor, dosage interval 12 h); 100 min in series [2] (E1.3: expected t1/2 90-100 min, 500 mg cefaclor, dosage interval 8 h); 101 min in series [2] (E1.4: expected t1/2 90-100 min, 750 mg cefaclor, dosage interval 12 h); 92 min in series [2] (E1.5: expected t1/2 90-100 min, 750 mg cefaclor, dosage interval 8 h); 96 min in series [2] (E2.1: simulated poor absorber, expected t1/2 90-100 min, 500 mg, interval 8 h). In addition, the “Observed t1/2” value is 100 min in series [2] (E2.2: simulated standard absorber, expected t1/2 90-100 min, 500 mg, interval 8 h) and 92 min in series [2] (E2.3: simulated good absorber, expected t1/2 90-100 min, 500 mg, interval 8 h).

The values above are taken from US20090233895A1, “METHOD OF TREATMENT OF BACTERIAL INFECTIONS” (Ethypharm, priority 2006, published 2009).
